Assay results reported in patent US8324390B2, “Tetrazole-substituted anthranilamides as pesticides” (Bayer CropScience AG, priority 2008, dated 2012).
Like-named read-outs stand apart in the source and are kept apart here.

Assays:
[1] = log P determination by HPLC (EEC Directive 79/831 Annex V.A8); type: physicochemical
Experimental: The measurements were carried out using an Agilent 1100 LC system with a 50*4.6 Zorbax Eclipse C18 1.8 μm column (oven temperature 55° C., flow rate 2.0 ml/min).
The following mobile phases were used:
Mobile phase A: acetonitrile+1000 μl of formic acid/l
Mobile phase B: Millipore water+900 μl of formic acid/l

[2] = tested on: caterpillars of the armyworm (Spodoptera frugiperda); experiment: Spodoptera frugiperda test (SPODFR spray treatment); type: in vivo; conditions: Spodoptera frugiperda, foliar, read-out: effect in % (caterpillars killed)
Source text: (§1) Solvent: 78.0 parts by weight of acetone

[3] = tested on: green peach aphid (Myzus persicae); experiment: Myzus test (MYZUPE spray treatment); type: in vivo; conditions: Myzus persicae, foliar, read-out: effect in % (aphids killed)
Source text: Solvent: 78 parts by weight of acetone
as §1

Lucilia cuprina larvae = experiment: Lucilia cuprina test (LUCICU); type: in vivo; conditions: in Equus caballus, read-out: kill in % (larvae killed)
Experimental: (§2) Solvent: dimethyl sulphoxide
Vessels containing horse meat treated with the active compound preparation of the desired concentration are populated with Lucilia cuprina larvae.
(§3) After the desired period of time, the kill in % is determined.

Boophilus microplus = Boophilus microplus test (BOOPMI injection); type: in vivo; conditions: Rhipicephalus microplus, read-out: effect in % (no fertile eggs laid)
Experimental: as §2
The solution of active compound is injected into the abdomen (Boophilus microplus), and the animals are transferred into dishes and kept in a climatised room. The activity is assessed by […] of fertile eggs.
100% means that none of the ticks has laid any fertile eggs.

adult Musca domestica = experiment: Musca domestica test (MUSCDO); type: in vivo; conditions: treated sponge, read-out: kill in % (flies killed)
Experimental: as §2
Vessels containing a sponge treated with the active compound preparation of the desired concentration are populated with adult Musca domestica.
as §3

[4] = tested on: larvae of the mustard beetle (Phaedon cochleariae); experiment: Phaedon test (PHAECO spray treatment); conditions: Phaedon cochleariae, in Brassica rapa, foliar, read-out: effect in % (beetle larvae killed)
[5] = tested on: two-spotted spidermite (Tetranychus urticae); experiment: Tetranychus urticae test; OP-resistant (TETRUR spray application); type: in vivo; conditions: read-out: mortality in % (spider mites killed)
Source text: Solvent: 78.0 parts by weight acetone
• 1.5 parts by weight dimethylformamide Emulsifier 0.5 part by weight alkylaryl polyglycol ether
French beans (Phaseolus vulgaris) which are heavily infested with all stages of the two-spotted spidermite (Tetranychus urticae) are sprayed with a preparation of the active compound at the desired concentration.

[6] = by HPLC according to EEC Directive 79/831 Annex V.A8, read-out: log P
[7] = 20 μg/animal, injection into the abdomen

Compound | chromatographic logP [1, 6] | pest or weed control at 100 g/ha ([2]; in Zea mays) | pest or weed control at 100 g/ha ([3]; in Brassica rapa) | pest or weed control at 100 ppm (Lucilia cuprina larvae) | pest or weed control at 0.02 mg (Boophilus microplus) | pest or weed control at 100 ppm (adult Musca domestica) | pest or weed control at 100 g/ha [4] | chromatographic logP ([1]; log P) | mortality at 20 g/ha [5] | pest or weed control at 0.02 mg (Boophilus microplus; [7]) | chromatographic logP ([1]; reversed-phase HPLC, Zorbax Eclipse C18 column, determined by HPLC according to EEC Directive 79/831 Annex V.A8, read-out: log P) | pest or weed control at 100 g/ha ([2]; application rate 100 g/ha, maize leaf discs) | pest or weed control at 100 g/ha ([3]; application rate 100 g/ha, Chinese cabbage leaf discs)
CNC(=O)c1cc(Cl)cc(C)c1NC(=O)c1cc(Cn2nnc(C(F)(F)C(F)(F)C(F)(F)F)n2)nn1-c1ncccc1Cl [Example 2] | 3.75 | ≥ 80% | ≥ 80% | ≥ 80% | ≥ 80% | ≥ 80% | ≥ 80% | – | – | – | – | – | –
Cc1cc(Cl)cc(C(=O)NC(C)C)c1NC(=O)c1cc(Cn2nnc(C(F)(C(F)(F)F)C(F)(F)F)n2)nn1-c1ncccc1Cl [Example 363] | – | ≥ 80% | – | – | – | – | ≥ 80% | 4.21 | ≥ 80% | – | – | – | –
Cc1cc(Cl)cc(C(N)=O)c1NC(=O)c1cc(Cn2nnc(C(F)(F)C(F)(F)C(F)(F)F)n2)nn1-c1ncccc1Cl [Example 3] | 3.49 | ≥ 80% | – | ≥ 80% | ≥ 80% | ≥ 80% | ≥ 80% | – | – | – | – | – | –
CNC(=O)c1cc(Cl)cc(C)c1NC(=O)c1cc(Cn2nnc(C(F)(F)F)n2)nn1-c1ncccc1Cl [Example 11] | – | ≥ 80% | ≥ 80% | ≥ 80% | – | ≥ 80% | ≥ 80% | 3.05 | – | ≥ 80% | – | – | –
CNC(=O)c1cc(Cl)cc(C)c1NC(=O)c1cc(Cn2nnnc2C(F)(F)F)nn1-c1ccc(Cl)cc1Cl [Example 449] | – | – | – | – | – | – | ≥ 80% | – | ≥ 80% | – | 3.64 | ≥ 80% | ≥ 80%
Cc1cc(F)cc(C(=O)NC2CC2)c1NC(=O)c1cc(Cn2nnc(C(F)(F)C(F)(F)F)n2)nn1-c1ncccc1Cl [Example 220] | – | ≥ 80% | ≥ 80% | ≥ 80% | – | – | ≥ 80% | 3.3 | – | ≥ 80% | – | – | –
Cc1cc(C#N)cc(C(N)=O)c1NC(=O)c1cc(Cn2nnc(C(F)(F)C(F)(F)C(F)(F)F)n2)nn1-c1ncccc1Cl [Example 7] | 3.17 | ≥ 80% | ≥ 80% | ≥ 80% | ≥ 80% | ≥ 80% | ≥ 80% | – | – | – | – | – | –
Cc1cc(C#N)cc(C(=O)NC2CC2)c1NC(=O)c1cc(Cn2nnc(C(F)(F)F)n2)nn1-c1ncccc1Cl [Example 13] | – | ≥ 80% | ≥ 80% | ≥ 80% | – | ≥ 80% | ≥ 80% | 2.84 | – | ≥ 80% | – | – | –
CNC(=O)c1cc(Cl)cc(Cl)c1NC(=O)c1cc(Cn2nnc(C(F)(F)C(F)(F)F)n2)nn1-c1ncccc1Cl [Example 222] | – | ≥ 80% | ≥ 80% | ≥ 80% | – | – | ≥ 80% | 3.34 | – | ≥ 80% | – | – | –
CNC(=O)c1cc(C#N)cc(C)c1NC(=O)c1cc(Cn2nnc(C(F)(F)C(F)(F)C(F)(F)F)n2)nn1-c1ncccc1Cl [Example 5] | 3.43 | ≥ 80% | ≥ 80% | ≥ 80% | ≥ 80% | ≥ 80% | ≥ 80% | – | – | – | – | – | –
Cc1cc(I)cc(C(=O)NC(C)(C)C)c1NC(=O)c1cc(Cn2nnc(C(F)(F)C(F)(F)F)n2)nn1-c1ncccc1Cl [Example 218] | – | ≥ 80% | – | ≥ 80% | – | ≥ 80% | ≥ 80% | 4.5 | – | ≥ 80% | – | – | –
CC(C)(C)NC(=O)c1cc(Cl)cc(Cl)c1NC(=O)c1cc(Cn2nnc(C(F)(F)C(F)(F)F)n2)nn1-c1ncccc1Cl [Example 223] | – | ≥ 80% | ≥ 80% | ≥ 80% | – | ≥ 80% | ≥ 80% | 4.16 | – | ≥ 80% | – | – | –
Cc1cc(C#N)cc(C(=O)NC(C)C)c1NC(=O)c1cc(Cn2nnc(C(F)(F)F)n2)nn1-c1ncccc1Cl [Example 10] | – | ≥ 80% | – | ≥ 80% | – | ≥ 80% | ≥ 80% | 3.07 | – | ≥ 80% | – | – | –
